# Reference: ChEMBL document CHEMBL1201862, “PubChem BioAssay data set” (2004)
#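 Cultured in 96-well plates, cells were exposed to test compound for 48 hours across five concentrations. At the GI50, growth is halved.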 Activity calls are given as the source filed them. No stated cut-off is given here; in the data, active = GI50 up to about 1.1 µM and inactive = higher.
# Assays:
# Assay in all cases: DTP human tumour cell line panel, 48 h
# [1] = test system: CAKI-1
# [2] = test system: CCRF-CEM
# [3] = test system: HCT-116
# [4] = test system: HCT-15
# [5] = test system: HOP-92
# [6] = test system: HT-29
# [7] = test system: MDA-MB-231
# [8] = test system: MDA-MB-435
# [9] = test system: NCI-H522
# [10] = test system: RPMI-8226
# [11] = test system: RXF 393
# [12] = test system: SF-268
# [13] = test system: SF-539
# [14] = test system: SK-MEL-5
# [15] = test system: SK-OV-3
# [16] = test system: SNB-19
# [17] = test system: UACC-62
# [18] = test system: UO-31
SMILES,GI50 [1],GI50 [2],GI50 [3],GI50 [4] [µM],GI50 [5],GI50 [6],GI50 [7],GI50 [8],GI50 [9],GI50 [10],GI50 [11],GI50 [12],GI50 [13],GI50 [14],GI50 [15],GI50 [16],GI50 [17],GI50 [18]
C(=N/Nc1ccccn1)/c1cccnc1,> 100 µM (inactive),> 100 µM (inactive),> 100 µM (inactive),> 100,> 100 µM (inactive),> 100 µM (inactive),> 100 µM (inactive),> 100 µM (inactive),> 100 µM (inactive),> 100 µM (inactive),> 100 µM (inactive),> 100 µM (inactive),> 100 µM (inactive),> 100 µM (inactive),> 100 µM (inactive),> 100 µM (inactive),94.6 µM (inactive),> 100 µM (inactive)
CCCCc1ccc(Nc2nc(Cl)c3c(ncn3COCCOC(C)=O)n2)cc1,25.9 µM (inactive),28.2 µM (inactive),17.3 µM (inactive),16.3,18.6 µM (inactive),18.7 µM (inactive),18.5 µM (inactive),17.7 µM (inactive),17.2 µM (inactive),29 µM (inactive),12.9 µM (inactive),19.2 µM (inactive),19 µM (inactive),18.7 µM (inactive),17.1 µM (inactive),20.9 µM (inactive),16.6 µM (inactive),18.7 µM (inactive)
COc1ccc(-n2c(=O)n(-c3ccccc3)c(=O)n2-c2ccc(OC)cc2)cc1,1.78 µM (inactive),> 100 µM (inactive),> 100 µM (inactive),> 100,27.7 µM (inactive),–,> 100 µM (inactive),> 100 µM (inactive),> 100 µM (inactive),> 100 µM (inactive),> 100 µM (inactive),–,> 100 µM (inactive),> 100 µM (inactive),> 100 µM (inactive),> 100 µM (inactive),> 100 µM (inactive),> 100 µM (inactive)
CCOC(=O)c1nc2ccccc2nc1Nc1ccc(OC)cc1,13.8 µM (inactive),> 100 µM (inactive),42.3 µM (inactive),> 100,22.5 µM (inactive),> 100 µM (inactive),20.6 µM (inactive),> 100 µM (inactive),23.8 µM (inactive),> 100 µM (inactive),17.5 µM (inactive),51.6 µM (inactive),22 µM (inactive),30 µM (inactive),–,16.5 µM (inactive),28.5 µM (inactive),88.7 µM (inactive)
Cc1nc(O)nc2nc3cc(Cl)cc(Cl)c3c(NC(C)(CO)CO)c12,94.6 µM (inactive),> 100 µM (inactive),34 µM (inactive),> 100,16.4 µM (inactive),> 100 µM (inactive),14.7 µM (inactive),> 100 µM (inactive),> 100 µM (inactive),–,27.8 µM (inactive),25.7 µM (inactive),> 100 µM (inactive),> 100 µM (inactive),26.8 µM (inactive),21.4 µM (inactive),72.3 µM (inactive),91 µM (inactive)
COc1cc(C=O)cc(/C=N/N=C/c2ccccc2O)c1O,19.8 µM (inactive),8.85 µM (inactive),26.1 µM (inactive),40.1,3.22 µM (inactive),34.1 µM (inactive),23.7 µM (inactive),23.9 µM (inactive),40.5 µM (inactive),16.4 µM (inactive),37.3 µM (inactive),36.6 µM (inactive),4.73 µM (inactive),29.1 µM (inactive),12.7 µM (inactive),32.3 µM (inactive),28.4 µM (inactive),24.6 µM (inactive)
CCOC(=O)C(C(=S)SC)c1nn2c(=O)cc(C)nc2s1 (stereo unspecified),19.9 µM (inactive),29.4 µM (inactive),18.6 µM (inactive),20.3,21.7 µM (inactive),21.5 µM (inactive),19.5 µM (inactive),18.2 µM (inactive),21.1 µM (inactive),19.6 µM (inactive),20.8 µM (inactive),17.7 µM (inactive),18.3 µM (inactive),18.7 µM (inactive),22.9 µM (inactive),21.3 µM (inactive),20.4 µM (inactive),23 µM (inactive)
COc1ccc(Oc2nc3ccc(C(F)(F)F)cc3nc2-c2ccccc2)cc1,> 100 µM (inactive),98.9 µM (inactive),> 100 µM (inactive),> 100,49.9 µM (inactive),54.3 µM (inactive),> 100 µM (inactive),> 100 µM (inactive),> 100 µM (inactive),7.23 µM (inactive),50.5 µM (inactive),> 100 µM (inactive),–,> 100 µM (inactive),> 100 µM (inactive),> 100 µM (inactive),> 100 µM (inactive),1.57 µM (inactive)
Cc1noc(NS(=O)(=O)c2ccc(NC(=O)c3ccc4nc5ccccc5c(Nc5ccc(S(=O)(=O)Nc6onc(C)c6C)cc5)c4c3)cc2)c1C,> 100 µM (inactive),42.7 µM (inactive),> 100 µM (inactive),58.1,> 100 µM (inactive),73.3 µM (inactive),22.1 µM (inactive),> 100 µM (inactive),52.1 µM (inactive),36.2 µM (inactive),40.3 µM (inactive),> 100 µM (inactive),> 100 µM (inactive),49.4 µM (inactive),> 100 µM (inactive),> 100 µM (inactive),> 100 µM (inactive),> 100 µM (inactive)
CCOC(CCNCC(OCC)OCC)OCC,> 10 µM (inactive),> 10 µM (inactive),> 10 µM (inactive),> 10,> 10 µM (inactive),> 10 µM (inactive),> 10 µM (inactive),> 10 µM (inactive),> 10 µM (inactive),> 10 µM (inactive),> 10 µM (inactive),> 10 µM (inactive),> 10 µM (inactive),> 10 µM (inactive),> 10 µM (inactive),> 10 µM (inactive),> 10 µM (inactive),–
Cc1cc2c(cc1C)C(=O)c1ncccc1C2=O,36.6 µM (inactive),30.4 µM (inactive),19.9 µM (inactive),26.5,58.6 µM (inactive),23.3 µM (inactive),22.6 µM (inactive),16.8 µM (inactive),16.7 µM (inactive),29.9 µM (inactive),33.2 µM (inactive),49.3 µM (inactive),26.5 µM (inactive),7 µM (inactive),87.9 µM (inactive),34.8 µM (inactive),30.3 µM (inactive),37.3 µM (inactive)
O=C1C[C@@]23CCC4(CC2=CCC[C@H]3O1)OCCO4,> 100 µM (inactive),–,> 100 µM (inactive),> 100,> 100 µM (inactive),> 100 µM (inactive),> 100 µM (inactive),> 100 µM (inactive),> 100 µM (inactive),> 100 µM (inactive),> 100 µM (inactive),> 100 µM (inactive),> 100 µM (inactive),> 100 µM (inactive),> 100 µM (inactive),> 100 µM (inactive),> 100 µM (inactive),–
Cc1ccc(S(=O)(=O)[N-]C2C(=O)c3ccccc3C(=O)C2[n+]2cccc(C(N)=O)c2)cc1 (stereo unspecified),40.9 µM (inactive),> 100 µM (inactive),17.4 µM (inactive),> 100,> 100 µM (inactive),> 100 µM (inactive),32.6 µM (inactive),> 100 µM (inactive),> 100 µM (inactive),> 100 µM (inactive),> 100 µM (inactive),> 100 µM (inactive),> 100 µM (inactive),> 100 µM (inactive),> 100 µM (inactive),> 100 µM (inactive),> 100 µM (inactive),> 100 µM (inactive)
O=c1oc2cc(O)ccc2c(O)c1C(c1ccccc1F)c1c(O)c2ccc(O)cc2oc1=O,> 100 µM (inactive),–,48.4 µM (inactive),31,65.2 µM (inactive),> 100 µM (inactive),95.7 µM (inactive),43.8 µM (inactive),> 100 µM (inactive),29.6 µM (inactive),39.7 µM (inactive),78.2 µM (inactive),31.7 µM (inactive),28.4 µM (inactive),> 100 µM (inactive),> 100 µM (inactive),36.6 µM (inactive),> 100 µM (inactive)
CC(CC(C)[C@H]1CCC2[C@H]3C(CC(=O)[C@@]21C)[C@@]1(C)CCC(O)C[C@H]1C[C@@H]3O)C(=O)O (stereo partly specified),> 100 µM (inactive),43.4 µM (inactive),> 100 µM (inactive),77.3,> 100 µM (inactive),> 100 µM (inactive),> 100 µM (inactive),> 100 µM (inactive),> 100 µM (inactive),41.3 µM (inactive),> 100 µM (inactive),> 100 µM (inactive),> 100 µM (inactive),–,–,> 100 µM (inactive),> 100 µM (inactive),58.9 µM (inactive)
OC(CCN1CCCCC1)(c1ccccc1)c1ccccc1 [PRIDINOL],> 100 µM (inactive),> 100 µM (inactive),> 100 µM (inactive),> 100,32.4 µM (inactive),55 µM (inactive),> 100 µM (inactive),82.8 µM (inactive),> 100 µM (inactive),87.1 µM (inactive),> 100 µM (inactive),> 100 µM (inactive),–,82.8 µM (inactive),> 100 µM (inactive),> 100 µM (inactive),> 100 µM (inactive),55.1 µM (inactive)
